Where two headings read alike, the source gives them in different places.

For experiment [1], the system named is PBMCs from healthy donors. The experiment is described as follows: PBMC assay, dose-dependent cytokine induction. It is filed as cell-based. The following applies: Homo sapiens, 24 h. As for the experimental part:
Compounds I-A to IV were additionally tested on PBMCs from healthy donors to determine the dose-dependent cytokine induction. PBMCs from buffy coats were thawed on the day of the experiment and seeded with a density of 5×10^5 cells per well (96-well format, RPMI with 5% Human Serum+1% MEM Non-Essential Amino Acids+1% Sodium Pyruvate). In line with the experiment above, a serial dilution of the compounds was prepared and added to the cells for 24 hours. On the next days, cells were centrifuged and supernatants harvested for a cytokine readout based on a multiplex assay kit from mesoscale discovery (customized multiplex panel for the cytokines: IFNα2a, IFNβ, TNFα and IL6). Impact on cell viability was determined by CellTiter Glo2.0 from promega (Cat. G9241). Both experimental read outs were performed according to the manufacturer's instructions.

For the next experiment, the target named is T1, human STING (Homo sapiens, UniProt Q86WV6).
T1 construct: fused on or other part: His tag; chemically biotinylated (Sulfo-NHS-LC-Biotin) for capture on the chip
The experiment is described as follows: Affinity measurement assay (Biacore T200 SPR). The note with it: biotinylated human STING, 25° C., 1:1 binding model, read-out: Affinity (Kd) rhSTING. The method, then: T7 Shuffle E. coli cells, transformed with an expression vector encoding either a truncated version of human or murine His-tagged STING, were cultivated overnight in 50 mL LB media. 200 mL of LB media were inoculated to an OD600 of 0.05 and cells were grown at 37° C. at 120 rpm until an OD600 of 0.5 was reached. Protein expression was induced using 1 mM IPTG and cells were further cultivated at 30° C. over night. Cells were harvested by centrifugation at 4000 rpm for 30 min at 4° C. and frozen at −80° C. Subsequently, cells were thawed and resuspended in 30 mL IMAC-Buffer A (10 mM HEPES, 50 mM NaCl, 10 mM Imidazole, 250 mM L-Arginine, 10% Glycerol, pH 7.1) supplemented with 15 U/mL benzonase, 0.2 mg/mL MgCl2 and 0.1 mg/mL lysozyme. Lysis was performed by five sonification cycles with an amplitude of 25% and a pulse for 2 s, with 5 min incubation on ice between cycles. The lysate was centrifuged for 15 min at 16.000 g and the supernatant was filtrated (0.22 μm). Purification of STING was done using an ÄKTA prime chromatography system. A 1 mL His Trap excel column was equilibrated with IMAC-Buffer A before lysate was applied. After washing with multiple column volumes of buffer, STING was eluted using a linear gradient of IMAC-Buffer B (10 mM HEPES, 50 mM NaCl, 500 mM Imidazole, 250 mM L-Arginine, 10% Glycerol, pH 7.1). Elution fractions were analyzed by SDS-PAGE and STING containing fractions were mixed. Using the Äkta pure system in combination with a HiLoad Superdex 16/600 75 pg column, STING was further purified by preparative size-exclusion chromatography. Fractions were analyzed by SDS-PAGE and STING containing fractions were combined.
Purified proteins were biotinylated using EZ-Link Sulfo-NHS-LC-Biotin (Life Technologies GmbH) in ten-fold excess for 2 h on ice. The reaction was quenched by addition of 100 mM Tris pH8 and 1 h incubation on ice. Remaining biotin was removed by performing buffer exchange to PBS using Zeba Spin Desalting Columns, 7K MWCO, 0.5 mL (Thermo Fischer). Protein concentrations were determined using the Nanodrop system.
Affinity measurement of STING-binding compounds were performed using the Biacore T200 SPR system (GE Healthcare, Biacore T200 control Software 3.2). Therefore, the Biotin CAPture kit, series S (Cytiva Europe, Cat.no. 28920234) was utilized. A freshly docked Biotin CAPture chip was rehydrated overnight in the instrument (standby mode). The following day, the chip surface was conditioned three times with regeneration solution (6 M guanidine-HCl, 0.25 M NaOH) for 60 s at 10 μL/min on flow cell (FC) 1 and FC2. Subsequently, the Biotin CAPture reagent (Cytiva Europe, Cat.no. 29423383) was applied for 300 s at 2 μL/min on FC1 and FC2, followed by capturing of 100 nM biotinylated murine or 150 nM biotinylated human STING, respectively. […]
For orientation: Surface plasmon resonance follows binding to a sensor surface in real time, without labels.

A further experiment deals with 4T1 cells. The experiment is described as follows: Anti-tumoral efficacy in murine 4T1 breast cancer model. The experiment is classed as in vivo, Balb/c Rj mice. The method, then: The anti-tumoral efficacy of compound I-D was tested in a murine 4T1 breast cancer model. Balb/c Rj mice were injected subcutaneously with 1×10^5 4T1 cells. Three doses of compound I-D formulated in 5% Solutol in 2.5% glucose (31 nmol, 3.1 nmol and 0.31 nmol) or the vehicle control (5% Solutol in 2.5% glucose) were administered intratumorally at days 11, 16 and 21 after inoculation. Tumor size was monitored using BioVolume® (calculating the tumor size based on RGB, thermal and 3D model data) until day 21, when animals were sacrificed and tumor cytokines were analyzed compared to serum 3 h after final agonist injection. To evaluate the statistical significance of tumor volume reduction compared to the vehicle control, a 2way ANOVA test was used: *** p<0.0001.

Experiment [2] has as its system STING signaling (IRF and NFKB-pathway activation) in THP1 Dual Cells. The experiment is described as follows: THP-1 assay (THP1 Dual reporter cells, IRF / NFkB pathway activation). The note with it: Homo sapiens; THP1 Dual cells, 24 h incubation, IRF pathway; read-out: THP-1 EC50 (IRF). It is filed as cell-based. As for the experimental part: THP1 Dual Cells™, were purchased from Invivogen (Cat. thpd-nfis), and used to determine the biological activity of the compounds on a molecular level and to determine downstream activation of STING signaling (IRF and NFKB-pathway activation). Briefly, cultured cells were seeded on the day of the experiment with a density of 1×10^5 cells per well (96-well format in RPMI supplemented with 25 mM HEPES, 10% heat inactivated FCS,). A serial dilution of the compounds was prepared and added to the cells for a total incubation time of 24 hours. The test items were tested in 8 concentrations to determine a dose-dependent activation of the NFKB and the IRF pathway. After 24 h cells were centrifuged and supernatants harvested for the detection of secreted alkaline phosphatase (measured by QUANTI-Blue™ detection solution; Cat. rep-qbs Invivogen) or lucia luciferase (measured by QUANTI-Luc™ reagent; Cat. rep-qlc1, Invivogen), respectively. The read outs were be performed according to the manufacturer's instructions. EC50 values were calculated using GraphPad Prism 9.

[3] abbreviates: IFNα in supernatant, read-out: PBMC EC50 (μM) for IFNα.
[4] abbreviates: IFNβ in supernatant, read-out: PBMC EC50 (μM) for IFNβ.
The mark [5] stands for this setting: tumor, 3 h after final agonist injection, day 21.

T1 sequence (Q86WV6 153-340 limits assumed): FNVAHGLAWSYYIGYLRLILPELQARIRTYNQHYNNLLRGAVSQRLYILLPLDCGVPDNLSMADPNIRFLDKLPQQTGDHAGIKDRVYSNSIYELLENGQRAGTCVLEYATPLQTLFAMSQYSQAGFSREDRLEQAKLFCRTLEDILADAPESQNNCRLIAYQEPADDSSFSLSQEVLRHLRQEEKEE

On to `CCn1nc(C)cc1C(=O)Nc1nc2cc(C(N)=O)cc(OC)c2n1C/C=C/Cn1c(NC(=O)c2cc(C)nn2CC)nc2cc(C(N)=O)cc(OCCCC(=O)N(C)NC)c21` [I-D], for which the EC50 in experiment [1] (setting [3]) worked out at 0.26 µM. Moreover, the concentration giving a half-maximal response (EC50) in experiment [1] (setting [4]) amounted to 0.265 µM. Moreover, the dissociation constant (Kd) at human STING came to 0.00413 nM. Besides, the “Tumor size (BioVolume) compared to vehicle control” value with 4T1 cells (31, 3.1 and 0.31 nmol intratumorally at days 11, 16 and 21, until day 21) is listed as “marked decrease in tumor size”. In addition, in the experiment with 4T1 cells (setting [5]), the “IFNα level in the tumor compared to diABZI” value is on record as “higher levels” and the “IFNγ level in the tumor compared to diABZI” value was “higher levels”.
In the case of `CCn1nc(C)cc1C(=O)Nc1nc2cc(C(=O)NNC)cc(OC)c2n1C/C=C/Cn1c(NC(=O)c2cc(C)nn2CC)nc2cc(C(N)=O)cc(OCCCN3CCOCC3)c21` [II-B], the EC50 in experiment [2] amounted to 2740 nM; in experiment [1] (setting [3]) it was 1.95 µM; in experiment [1] (setting [4]), 1.16 µM. Further, the Kd on human STING came out at 0.959 nM.
`CCn1nc(C)cc1C(=O)Nc1nc2cc(C(=O)N(C)NC)cc(OC)c2n1C/C=C/Cn1c(NC(=O)c2cc(C)nn2CC)nc2cc(C(N)=O)cc(OCCCN3CCOCC3)c21` [II-D]: the EC50 was 1.14 µM in experiment [1] (setting [3]) and 0.821 µM in experiment [1] (setting [4]). In addition, at human STING, the Kd was 2.91 nM.
Regarding `CCn1nc(C)cc1C(=O)Nc1nc2cc(C(N)=O)cc(OC)c2n1C/C=C/Cn1c(NC(=O)c2cc(C)nn2CC)nc2cc(C(=O)NN)cc(OCCCN3CCOCC3)c21` [III], the EC50 in experiment [1] (setting [4]) is 0.387 µM. Also, on human STING, the dissociation constant (Kd) amounted to 0.319 nM.

As a reminder, the EC50 is the midpoint of the concentration-response curve. As usually defined, the Kd is the free concentration of one partner at which half of the binding sites on the other are occupied at equilibrium, for simple one-to-one binding.

The values are drawn from patent US20260242366A1, “STING AGONISTS CONTAINING HYDRAZIDE, HYDRAZINE, AND HYDROXAMIC ACID FUNCTIONAL GROUPS” (BioNTech SE, priority 2023, published 2026).
